Test results as given in US20070026073A1, “Amorphous efavirenz and the production thereof” (priority 2005, published 2007).

Experiment: dissolution test, USP apparatus II (paddles), efavirenz released in water
Type: physicochemical
Settings: 50 mg efavirenz equivalent in capsule with 15% croscarmellose sodium, 37° C., 100 rpm
Experimental: FIG. 9 is a plot of percent efavirenz released in water as a function of time for spray dried product using solvent and solvent/non-solvent methods in accordance with Example #8.
Initial release refers to the percent of drug released after 15 minutes in accordance with a standard dissolution test method. Extent of release refers to the percent of drug released after 240 minutes in accordance with the same standard dissolution test method.
Preferably these limits are obtained within about 120 minutes, more particularly within about 60 minutes and still more particularly within about 30 minutes. Dissolution profiles can be determined using USP apparatus II (paddles) (VK 7010®, Varian Inc.), with a bath temperature of 37° C. and a paddle speed of 100 rpm for 240 minutes.
3. The dissolution properties of both amorphous compositions were tested and compared to the crystalline drug form. An amount equivalent to 50 mg efavirenz was analyzed. Powders were hand-filled into size 1 hard gelatin capsules (Shinogi Qualicaps) with an additional 15% croscarmellose sodium (Ac-Di-Sol®, FMC BioPolymers). USP apparatus II (paddles) (VK 7010®, Varian Inc.) was used, with a bath temperature of 37° C. and a paddle speed of 100 rpm for 240 minutes. Both amorphous efavirenz compositions achieved faster rate of release and higher maximum aqueous concentration than the crystalline form (FIG. 9, Table 1). […]

With `O=C1Nc2ccc(Cl)cc2[C@@](C#CC2CC2)(C(F)(F)F)O1` [crystalline efavirenz, (S)-6-chloro-4-(cyclopropylethynyl)-1,4-dihydro-4-(trifluoromethyl)-2H-3,1-benzoxazin-2-one] the “EFV released 15 min” value (15 min) was 7% and the “EFV released 240 min” value (240 min) was 13%.
